SMILES strings stand for the structures. ≈ marks a conversion by molar mass, not a printed value. Numbered stars: 1 amine (or outer) side, 2 acyl side, 3 side chain; on linkers, the order of the positions; unused ones are H or OH. Square brackets hold non-standard residues; d marks the D form. Side chains are listed from the residue outwards. Peptide text beside a SMILES is read from it. * marks the point of attachment. γGlu = O=C(O)[C@H](CCC(=O)[*:2])N[*:1]; Palmitoyl = CCCCCCCCCCCCCCCC(=O)*; Aib = CC(C)(N)C(=O)O

This series can be described thus: Solubility assessment in solubility buffer system A. The format is physicochemical. To be noted: acetate buffer pH 4.5 with m-cresol; acetate buffer pH 4.5, 2.7 mg/ml m-cresol, target 10 mg/ml. The method, then: Prior to the solubility measurement of a peptide batch, its purity was determined through UPLC/MS.
Therefore solutions from solid samples were prepared in a buffer system with a concentration of 10 mg/mL compound based on the previously determined % purity:
Solubility buffer system A) Acetate Buffer pH 4.5, 100 mM sodium acetate trihydrate, 2.7 mg/ml m-Cresol
UPLC-UV was performed after 1 hour of gentle agitation from the supernatant, which was obtained after 15 min of centrifugation at 2500 RCF (relative centrifugal acceleration).
The solubility was determined by the comparison of the UV peak area of 2 μL-injection of a buffered sample diluted 1:10 with a standard curve of a reference peptide with known concentration. The different UV extinction coefficients of sample and reference peptide were calculated based on the different amino acid sequences and considered in the concentration calculation.
Peptide samples were prepared in solubility buffer system A and solubility was assessed as described in Methods.
Consider `CCCCCCCCCCCCCCCC(=O)N[C@@H](CCC(=O)N[C@@H](CCC(=O)NCCCC[C@H](NC(=O)[C@H](CC(C)C)NC(=O)[C@H](CCCCN)NC(=O)[C@H](CO)NC(=O)[C@H](CC(C)C)NC(=O)[C@H](CC(=O)O)NC(=O)[C@H](CO)NC(=O)[C@@H](NC(=O)[C@H](Cc1ccccc1)NC(=O)[C@@H](NC(=O)CNC(=O)[C@H](Cc1c[nH]cn1)NC(=O)C(C)(C)NC(=O)[C@@H](N)Cc1c[nH]cn1)[C@@H](C)O)[C@@H](C)O)C(=O)N[C@@H](CCC(=O)O)C(=O)N[C@@H](CCC(=O)O)C(=O)N[C@@H](CCC(N)=O)C(=O)N[C@@H](CCCNC(=N)N)C(=O)N[C@@H](CCC(N)=O)C(=O)N[C@@H](CCCCN)C(=O)N[C@@H](CCC(=O)O)C(=O)N[C@@H](Cc1ccccc1)C(=O)N[C@H](C(=O)N[C@@H](CCC(=O)O)C(=O)N[C@@H](Cc1c[nH]c2ccccc12)C(=O)N[C@@H](CC(C)C)C(=O)N[C@@H](CCCCN)C(=O)N[C@@H](C)C(=O)NCC(=O)NCC(=O)N1CCC[C@H]1C(=O)N1CCC[C@H]1C(=O)N[C@@H](CO)C(=O)NC(C)(C)C(=O)N[C@@H](CCCCN)C(=O)N1CCC[C@H]1C(=O)N1CCC[C@H]1C(=O)N1CCC[C@H]1C(=O)N[C@@H](CCCCN)C(N)=O)[C@@H](C)CC)C(=O)O)C(=O)O` [SEQ ID NO: 8, H-Aib-H-G-T-F-T-S-D-L-S-K-L-K[gGlu-gGlu-Palm]-E-E-Q-R-Q-K-E-F-I-E-W-L-K-A-G-G-P-P-S-Aib-K-P-P-P-K-NH2], for which the solubility at 1 h was 9500 µg/mL (≈ 1940 µM).

`CCCCCCCCCCCCCCCC(=O)N[C@@H](CCC(=O)N[C@@H](CCC(=O)NCCCC[C@H](NC(=O)[C@H](CC(C)C)NC(=O)[C@H](CCCCN)NC(=O)[C@H](CO)NC(=O)[C@H](CC(C)C)NC(=O)[C@H](CC(=O)O)NC(=O)[C@H](CO)NC(=O)[C@@H](NC(=O)[C@H](Cc1ccccc1)NC(=O)[C@@H](NC(=O)CNC(=O)[C@H](Cc1c[nH]cn1)NC(=O)C(C)(C)NC(=O)[C@@H](N)Cc1c[nH]cn1)[C@@H](C)O)[C@@H](C)O)C(=O)N[C@@H](CCC(=O)O)C(=O)N[C@@H](CCC(=O)O)C(=O)N[C@@H](CCC(N)=O)C(=O)N[C@@H](CCCNC(=N)N)C(=O)N[C@@H](CCC(N)=O)C(=O)N[C@@H](CCCCN)C(=O)N[C@@H](CCC(=O)O)C(=O)N[C@@H](Cc1ccccc1)C(=O)N[C@H](C(=O)N[C@@H](CCC(=O)O)C(=O)N[C@@H](Cc1c[nH]c2ccccc12)C(=O)N[C@@H](CC(C)C)C(=O)N[C@@H](CCCCN)C(=O)N[C@@H](C)C(=O)N[C@H](C)C(=O)NCC(=O)N1CCC[C@H]1C(=O)N1CCC[C@H]1C(=O)N[C@@H](CO)C(=O)NC(C)(C)C(=O)N[C@@H](CCCCN)C(=O)N1CCC[C@H]1C(=O)N1CCC[C@H]1C(=O)N1CCC[C@H]1C(=O)N[C@@H](CCCCN)C(N)=O)[C@@H](C)CC)C(=O)O)C(=O)O` [SEQ ID NO: 9, H-Aib-H-G-T-F-T-S-D-L-S-K-L-K[gGlu-gGlu-Palm]-E-E-Q-R-Q-K-E-F-I-E-W-L-K-A-dAla-G-P-P-S-Aib-K-P-P-P-K-NH2] (H-H[Aib]HGTFTSDLSKLK([γGlu-γGlu-Palmitoyl])EEQRQKEFIEWLKA[dA]GPPS[Aib]KPPPK-NH2) came in with a solubility at 1 h of over 9300 µg/mL.

The compound `CCCCCCCCCCCCCCCC(=O)N[C@@H](CCC(=O)N[C@@H](CCC(=O)NCCCC[C@H](NC(=O)[C@H](CC(C)C)NC(=O)[C@H](CCCCN)NC(=O)[C@H](CO)NC(=O)[C@H](CC(C)C)NC(=O)[C@H](CC(=O)O)NC(=O)[C@H](CO)NC(=O)[C@@H](NC(=O)[C@H](Cc1ccccc1)NC(=O)[C@@H](NC(=O)CNC(=O)[C@H](Cc1c[nH]cn1)NC(=O)C(C)(C)NC(=O)[C@@H](N)Cc1c[nH]cn1)[C@@H](C)O)[C@@H](C)O)C(=O)N[C@@H](CCC(=O)O)C(=O)N[C@@H](CCC(=O)O)C(=O)N[C@@H](CCC(N)=O)C(=O)N[C@@H](CCCNC(=N)N)C(=O)N[C@@H](CCC(N)=O)C(=O)NC(C)(C)C(=O)N[C@@H](CCC(=O)O)C(=O)N[C@@H](Cc1ccccc1)C(=O)N[C@H](C(=O)N[C@@H](CCC(=O)O)C(=O)N[C@@H](Cc1c[nH]c2ccccc12)C(=O)N[C@@H](CC(C)C)C(=O)N[C@@H](CCCCN)C(=O)N[C@@H](C)C(=O)NCC(=O)NCC(=O)N1CCC[C@H]1C(=O)N1CCC[C@H]1C(=O)N[C@@H](CO)C(=O)NC(C)(C)C(=O)N[C@@H](CCCCN)C(=O)N1CCC[C@H]1C(=O)N1CCC[C@H]1C(=O)N1CCC[C@H]1C(=O)N[C@@H](CCCCN)C(N)=O)[C@@H](C)CC)C(=O)O)C(=O)O` [SEQ ID NO: 10, H-Aib-H-G-T-F-T-S-D-L-S-K-L-K[gGlu-gGlu-Palm]-E-E-Q-R-Q-Aib-E-F-I-E-W-L-K-A-G-G-P-P-S-Aib-K-P-P-P-K-NH2] returned a solubility at 1 h of over 9800 µg/mL.

Source of the values: patent US10538567B2, “Compounds as peptidic trigonal GLP1/glucagon/GIP receptor agonists” (priority 2016, dated 2020).
